Results reported in ChEMBL document CHEMBL4376829, “Discovery and biological evaluation of vinylsulfonamide derivatives as highly potent, covalent TEAD autopalmitoylation inhibitors” (Eur J Med Chem, 2019).
pIC50, pKd: −log10 of the molar value. Active and inactive are the calls of the source. The rule behind the calls is not given here.

Legend:
[1] = molecular target: T1, Transcriptional enhancer factor TEF-3 (Homo sapiens, UniProt Q15561); test: (§1) Inhibition of N-terminal His6 tagged human TEAD4-YBD (217 to 434 residues) expressed in Escherichia coli C43 (DE3) cells assessed as reduction in autopalmitoylation at 200 nM preincubated for 2 hrs followed by palmitoyl alkyne-coenzyme A addition and measured after 30 mins immunoblot analysis relative to control
[2] = molecular target: T1, Transcriptional enhancer factor TEF-3; test: as §1, with “800” for “200”, “mins by” for “mins”
[3] = molecular target: T1, Transcriptional enhancer factor TEF-3; test: Inhibition of N-terminal His6 tagged human TEAD4-YBD (217 to 434 residues) expressed in Escherichia coli C43 (DE3) cells assessed as reduction in autopalmitoylation at 50 uM preincubated for 2 hrs followed by palmitoyl alkyne-coenzyme A addition and measured after 30 mins by immunoblot analysis
[4] = molecular target: T1, Transcriptional enhancer factor TEF-3; test: Binding affinity to N-terminal His6 tagged human TEAD4 (217 to 434 residues) expressed in Escherichia coli C43 (DE3) cells incubated for 30 mins by isothermal Titration Calorimetry
[5] = molecular target: T1, Transcriptional enhancer factor TEF-3; test: Binding affinity to N-terminal His6 tagged human TEAD4-YBD (217 to 434 residues) expressed in Escherichia coli C43 (DE3) cells by SPR analysis
[6] = molecular target: T1, Transcriptional enhancer factor TEF-3; test: Inhibition of N-terminal His6-tagged human TEAD4 YAP binding domain (217 to 434 residues) expressed in Escherichia coli C43 (DE3) cells assessed reduction in autopalmitoylation preincubated for 2 hrs followed by palmitoyl alkyne coenzyme A addition and measured after 30 mins by immunoblot analysis
[7] = molecular target: T1, Transcriptional enhancer factor TEF-3; test: Binding affinity to TEAD4 (unknown origin) assessed as change in melting temperature at protein to compound ratio of 1:40 by SYPRO orange dye based thermal shift assay
[8] = molecular target: T1, Transcriptional enhancer factor TEF-3; test: Binding affinity to N-terminal His6 tagged human TEAD4 (217 to 434 residues) expressed in Escherichia coli C43 (DE3) cells at 200 uM by STD NMR spectral analysis
[9] = molecular target: T1, Transcriptional enhancer factor TEF-3; test: Binding affinity to TEAD4 (unknown origin) assessed as change in melting temperature by fluorescence based thermal shift assay
[10] = molecular target: T1, Transcriptional enhancer factor TEF-3; test: Binding affinity to TEAD4 (unknown origin) assessed as induction of protein folding by SYPRO-dye based thermal shift assay
[11] = molecular target: T1, Transcriptional enhancer factor TEF-3; test: Binding affinity to N-terminal His6 tagged human TEAD4 (217 to 434 residues) expressed in Escherichia coli C43 (DE3) cells at 200 uM by CPMG NMR spectral analysis
[12] = molecular target: T1, Transcriptional enhancer factor TEF-3; test: Competitive binding affinity to N-terminal His6 tagged human TEAD4 (217 to 434 residues) expressed in Escherichia coli C43 (DE3) cells at 200 uM in presence of palmitoyl CoA by CPMG NMR spectral analysis
[13] = molecular target: T1, Transcriptional enhancer factor TEF-3; test: Binding affinity to TEAD4 (unknown origin) assessed as change in melting temperature at protein to compound ratio of 1:10 by SYPRO orange dye based thermal shift assay

T1 sequence (Q15561 whole entry, the tested form may be a part): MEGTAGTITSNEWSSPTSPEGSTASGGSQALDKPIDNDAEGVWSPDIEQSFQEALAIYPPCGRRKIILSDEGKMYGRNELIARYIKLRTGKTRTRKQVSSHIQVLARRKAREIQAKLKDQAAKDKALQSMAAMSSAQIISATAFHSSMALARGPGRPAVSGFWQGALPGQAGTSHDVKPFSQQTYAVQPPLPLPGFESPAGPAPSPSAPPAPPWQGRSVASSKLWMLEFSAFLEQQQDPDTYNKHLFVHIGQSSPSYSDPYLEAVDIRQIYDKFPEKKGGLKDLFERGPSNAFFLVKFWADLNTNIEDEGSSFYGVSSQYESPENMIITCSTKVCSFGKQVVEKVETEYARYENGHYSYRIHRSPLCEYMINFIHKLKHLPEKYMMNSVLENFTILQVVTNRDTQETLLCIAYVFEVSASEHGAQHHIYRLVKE

Compound | inhibition [1] [%] | inhibition [2] [%] | other results
C=CS(=O)(=O)Nc1ccc(Cc2ccc3ccccc3c2)c(OC2CCNCC2)c1 | 1.2 | 6.5 | inhibition [3]: Active
C=CS(=O)(=O)Nc1ccc(NC(=O)c2ccc3ccccc3c2)cc1 | 15.6 | 35 | 
O=C(O)c1ccccc1Nc1cccc(C(F)(F)F)c1 [FLUFENAMIC ACID] |  |  | pKd [4]: 4.14; pKd [5]: 4.08; pIC50 [6]: 4.27; inhibition [6]: Dose-dependent effect
C=CS(=O)(=O)Nc1ccc(Cc2ccccc2)cc1 | 59.2 | 92.5 | 
C=CS(=O)(=O)Nc1ccc2ccccc2c1 | 8.4 | 1.1 | 
C=CS(=O)(=O)Nc1ccc(Cc2ccc3ccccc3c2)c(O)c1 | 44.3 | 92.1 | 
C=CS(=O)(=O)Nc1ccc(C(=O)Nc2ccc3c(c2)CCNC3)cc1 | 0.3 | 10.1 | 
C=CS(=O)(=O)Nc1ccc(Cc2ccc3ccc(O)cc3c2)cc1 | 18.9 | 82.5 | 
C=CS(=O)(=O)Nc1ccccc1Oc1ccccc1 | -4.1 | 25.2 | 
C=CS(=O)(=O)Nc1ccc(OCc2ccccc2)cc1 | 21 | 52.5 | 
Cc1ccc(Oc2ccc(N)cc2)cc1 |  |  | ΔTm [7]: 4.5 °C; Activity [8]: Active; Activity [9]: Dose-dependent effect; Activity [10]: Dose-dependent effect; pKd [5]: 4.39; Activity [11]: Active; Activity [12]: Active; pIC50 [6]: 4.49; inhibition [6]: Dose-dependent effect; ΔTm [13]: 3.1 °C
C=CS(=O)(=O)Nc1ccc2c(c1)CCN(C(=O)c1ccccc1)C2 | 5.4 | 25.4 | 
C=CS(=O)(=O)Oc1ccc(Oc2ccccc2)cc1 | 62.2 | 94.8 | 
